Data from patent US5773236A, “Assay for glutathiane transferase using polyhaloaryl-substituted reporter molecules” (Molecule Probes, Inc., priority 1997, dated 1998).
Counter-ions that a name gives are not always drawn.

How the values were obtained:
[1] = tested on: glutathione S-transferase; experiment: Other derivatives tested as GSH/GST substrates, TLC (Example 54); format: biochemical; conditions: 0.2-0.5 mM compound in 50 mM MOPS, pH 7.5, TLC
Protocol: The reaction is then stopped by adding 10% H2 O2.
The PHA compound (ethanol stock solution, 2 mM) and reduced glutathione (phosphate buffer stock solution, 5 mM) are incubated under the same conditions as described above without addition of glutathione S-transferase.
Commercial precast silica gel TLC plates are used to follow both the enzymatic reaction and the blank control reaction. […] UV absorbance by the PHA substituent always permits detection of both the compound and any glutathione adduct by fluorescence quenching when the TLC sheet is illuminated with 254-nm radiation. Fluorescent compounds can be directly detected using appropriate UV or visible illumination. […] Furthermore, the intensity of the signal on the TLC sheet often can be enhanced by methods well known in the art, such as by application of a phosphomolybdate spray, iodine vapors or a similar detection reagent. Radioactive products can be directly detected and quantitated by exposure to a suitable film using methods well known in the art.

[2] = tested on: Bovine pulmonary aorta endothelial cells (BPAEC); experiment: Glutathione adduct formation and fate of substrate in cultured animal cells, HPLC (Example 66); format: cell-based; conditions: BPAEC, up to 4 hours
Protocol: The solutions are mixed overnight with three volumes of ethyl acetate followed by centrifugation at 15,000×g for 30 min to separate the organic and aqueous layers. HPLC analysis using a Rainin HPLC equipped with a C18, 5 μm, 100 Å, 4.6×250 mm MICROSORB-MV reverse phase column. […] Products are detected by reading the absorbance at 500 nm.
Bovine pulmonary aorta endothelial cells (BPAEC) are removed from flasks by trypsinization and washed into fresh complete growth medium to yield 10^6 cells/mL. […] Other aliquots of the cell suspension are loaded with the same substrates for 1 hour, rinsed into fresh complete medium, then incubated in the absence of substrate for an additional 3 hr at 37° C. to look for retention and efflux of fluorescent products. At the end of each incubation period the cells are removed by centrifugation and the supernate is retained. The cell pellets are resuspended in 1 mL of E-Pure water and subjected to three freeze-thaw cycles (-80° C. to 37° C.).

[3] = tested on: 3T3 or BPAE cells; experiment: Intracellular products of tracers by TLC and HPLC (Example 67); format: cell-based; conditions: 5 μM, 1 hr, 37° C.
Protocol: Reaction mixtures with and without GST using Compound 1 as the substrate, are prepared as described in Example 48. The solutions are mixed overnight with three volumes of ethyl acetate followed by centrifugation at 15,000×g for 30 min to separate the organic and aqueous layers. HPLC analysis using a Rainin HPLC equipped with a C18, 5 μm, 100 Å, 4.6×250 mm MICROSORB-MV reverse phase column. Products are separated in 30 min with a gradient of 5% to 95% solvent B in Solvent A at a flow rate of 1 mL/min, where solvent A is 0.1M triethylammonium acetate, pH 7.0, and solvent B is acetonitrile (see FIG. 1). Products are detected by reading the absorbance at 500 nm. Peaks are identified and, if desired, quantitated by comparing retention times with authentic samples of the glutathione adduct of Compound 45 (Example 45).
(§1) Cultures of either 3T3 or BPAE cells are treated with 5 μM solutions of either Compound 4,5-(pentachlorobenzoylamino)fluorescein diacetate, 5-pentafluorobenzenesulfonylamino)fluorescein diacetate, or 5-chloromethylfluorescein diacetate (CMFDA, Molecular Probes, Inc.) for 1 hr at 37° C. The cells are spun, resuspended in distilled water and lysed by repeated freezing and thawing. 20 μL of the cell lysate supernatant is diluted with 30 μL of SDS-PAGE sample buffer, containing β-mercaptoethanol. The cell pellets are dispersed in 50 μL of water. 20 μL of each sample is added to 30 μL of the same sample buffer. The samples are heated at 95° C. for 5 min. and loaded on 4-20% polyacrylamide gradient minigels. At the completion of the run the gels are observed with UV excitation.
Alternatively, the above samples are analyzed by TLC and by HPLC, as described in Examples 48 and 52. […] Coinjection with authentic Compound 1 confirms the identity of the substrate peak and coinjection with the authentic Compound 1-GSH adduct (Example 45) confirms the identify of the other fluorescent product.

[4] = tested on: 3T3 or BPAE cells; experiment: Intracellular products of tracers by gel electrophoresis (Example 67); format: cell-based; conditions: 5 μM, 1 hr, 37° C.
Protocol: as §1

[5] = tested on: alkaline phosphatase; experiment: Detection of alkaline phosphatase on a membrane blot (Example 63); format: biochemical; conditions: nitrocellulose
Protocol: The reagents used are: 1) 5-(pentafluorobenzoylamino)fluorescein diphosphate, tetraammonium salt (Compound 47; Example 47), 10 mM in 0.1M Tris, pH 8.5; 2) fluorescein diphosphate (FDP; Molecular Probes, #F-2999), 10 mM in 0.1M Tris, pH 8.5; 3) BLOCKER Blotto in PBS (Pierce Chemical Company); 4) 0.2M glycine, pH 8.8; 5) 0.05M MgCl2, 6) 0.1M Tris, pH 8.5; 7) wash buffer: 20 mM Tris, 137 mM NaCl, 0.5% TWEEN 20, pH 7.5. Stock solutions of alkaline phosphatase are diluted in 0.1M Tris, pH 8.5 to obtain solutions with the following concentrations: 1 μg/μL, 0.5 μg/μL, 0.25 μg/μL, 0.1 μg/μL, 50 ng/μL, 10 ng/μL, 1 ng/μL and 0 ng/μL. 1 μL of each diluted solution is spotted on a nitrocellulose membrane (1"×1"), pore size 0.45 μM, and allowed to dry overnight at room temperature. Blocking is done by treating both nitrocellulose blots with 2 mL of supernatant liquid from the BLOCKER Blotto solution for 30 minutes at room temperature. The following mixture is prepared: 1.5 mL of 0.2M glycine, pH 8.8+0.4 mL of 0.05M MgCl2 +100 μL of 0.1M Tris, pH 8.5+10 μL of 10 mM substrate stock solution (either PFB-FDP or FDP). Blotto supernatant on the blots is replaced with the above mixture and incubation is carried out for 35 minutes at 37° C. A Polaroid image of the blots is obtained by illuminating with reflected UV light at 254 nm. Exposure time is 5-10 sec with an aperture setting of F=4.5 and filter #15 is used to block unwanted light. Both Compound 47 and FDP can detect ~50 ng of the enzyme prior to washing the membranes. The blots are washed twice for 5 minutes each time with 2 mL of wash buffer and an image is obtained using the same settings and exposure times as described above.

`O=C(c1c(F)c(F)c(F)c(F)c1F)c1cc2ccc(O)cc2oc1=O` [7-hydroxy-3-(pentafluorobenzoyl)coumarin] was tested, and the glutathione adducts detected [1] was “detectable glutathione adducts”.

For `CN(C)c1ccc2c(CC(=O)NCCNC(=O)c3c(F)c(F)c(F)c(F)c3F)cc(=O)oc2c1` [Compound 40, 7-dimethylamino-4-(((((2-(pentafluorobenzoyl)amino)ethyl)amino)carbonyl)methyl)coumarin], the glutathione adducts detected [1] was “detectable glutathione adducts”.

In the case of `N[C@@H](CCC(=O)N[C@@H](CSc1c(F)c(F)c(C(=O)Nc2ccc3c(c2)C(=O)OC32c3ccc(O)cc3Oc3cc(O)ccc32)c(F)c1F)C(=O)NCC(=O)O)C(=O)O` [Compound 45, 5-(4'-(S-glutathionyl))-(2',3', 5',6'-tetrafluorobenzoylamino)fluorescein], the “retention of GSH adduct / fluorescence labeling in cells” value [2] is reported as “rapidly removed from the cytoplasm of these BPAEC cells but a fraction of the fluorescence labeling is retained, even after 4 hours”.

For `CC(=O)Oc1ccc2c(c1)Oc1cc(OC(C)=O)ccc1C21OC(=O)c2cc(NS(=O)(=O)c3c(F)c(F)c(F)c(F)c3F)ccc21` [5-pentafluorobenzenesulfonylamino)fluorescein diacetate], the “products by TLC” value [3] was “formation of a GSH adduct”, the “fluorescent bands on gel (region of the tracking dye)” value [4] was “Two closely spaced green fluorescent bands” and the “protein adduct bands on gel” value [4] was “No other band corresponding to proteins is visible”.

In the case of `O=c1cc(-c2c(F)c(F)c(F)c(F)c2F)c2ccc(O)cc2o1` [Compound 44, 7-hydroxy-4-pentafluorophenylcoumarin], the glutathione adducts detected [1] is reported as “detectable glutathione adducts”.

In the case of `NCCNC(=O)c1c(F)c(F)c(F)c(F)c1F` [Compound 31, ((2-(pentafluorobenzoyl)amino)ethyl)ammonium trifluoroacetate], the glutathione adducts detected [1] is reported as “detectable glutathione adducts”.

For `O=C(c1c(F)c(F)c(F)c(F)c1F)c1cc2cc(F)c(O)c(F)c2oc1=O` [Compound 42, 6,8-difluoro-7-hydroxy-3-pentafluorobenzoylcoumarin], the glutathione adducts detected [1] was “detectable glutathione adducts”.

`O=C(c1c(F)c(F)c(F)c(F)c1F)N1CCN(C(=O)c2c3oc4cc(O)c(Cl)cc4nc-3ccc2=O)CC1` [Compound 17] was tested, and the glutathione adducts detected [1] was “detectable glutathione adducts”.

In the case of `O=C1OC2(c3ccc(OP(=O)(O)O)cc3Oc3cc(OP(=O)(O)O)ccc32)c2ccccc21` [FDP, fluorescein diphosphate, reference compound], the “amount of enzyme detected, before washing” value ([5]; 35 minutes, 37° C., prior to washing the membranes) is reported as ~ 50 ng and the “detection of enzyme after washing” value ([5]; washed twice for 5 minutes) is reported as “unable to detect the presence of any enzyme”.

With `CCN(CC)c1ccc2c(CNC(=O)c3c(F)c(F)c(F)c(F)c3F)cc(=O)oc2c1` [Compound 29, 7-diethylamino-4-(((Pentafluorobenzoyl)amino)methyl)coumarin] the glutathione adducts detected [1] was “detectable glutathione adducts”.

With `O=C(NCCNC(=O)c1cc2ccc(O)cc2oc1=O)c1c(F)c(F)c(F)c(F)c1F` [Compound 32, 7-hydroxy-3-((((2-(pentafluorobenzoyl)amino)ethyl)amino)carbonyl)coumarin] the glutathione adducts detected [1] was “detectable glutathione adducts”.

`O=C(Nc1ccc2c(c1)C(=O)OC21c2ccc(O)cc2Oc2cc(O)ccc21)c1cc(F)c(F)c(F)c1` [Compound 26, 5-(3',4',5'-trifluorobenzoylamino)fluorescein] was tested, and the glutathione adducts detected [1] was “detectable glutathione adducts”.

With `CC(=O)Oc1ccc2c(c1)Oc1cc(OC(C)=O)ccc1C21OC(=O)c2cc(CCl)ccc21` [CMFDA, 5-chloromethylfluorescein diacetate, reference compound] the “products by HPLC” value ([3]; HPLC) was “the glutathione adduct and additional small peaks”, the “products by TLC” value [3] was “multiple TLC bands” and the “protein adduct bands on gel” value [4] was “multiple fluorescent bands”.

`CN(C)c1ccc2c(c1)Oc1cc(N(C)C)ccc1C21OC(=O)c2cc(NC(=O)c3c(F)c(F)c(F)c(F)c3F)ccc21` [Compound 25, 5-(pentafluorobenzoylamino)tetramethylrhodamine] was tested, and the glutathione adducts detected [1] was “detectable glutathione adducts”.

`O=c1[nH][nH]c(=O)c2c(F)c(F)c(F)c(F)c12` [Compound 43, tetrafluorophthalhydrazide] was tested, and the glutathione adducts detected [1] was “detectable glutathione adducts”.

With `O=C(c1c(F)c(F)c(F)c(F)c1F)N1CCN(C(=O)c2c3oc4cc(O[C@@H]5O[C@H](CO)[C@H](O)[C@H](O)[C@H]5O)c(Cl)cc4nc-3ccc2=O)CC1` [Compound 22, 8-chloro-3,7-dihydroxy-4-(4-pentafluorobenzoyl-1-piperazinecarbonyl)phenoxazine β-D-galactopyranoside] the glutathione adducts detected [1] was “detectable glutathione adducts”.

For `O=c1oc2cc(O)ccc2cc1-c1c(F)c(F)c(F)c(F)c1F` [Compound 41, 7-hydroxy-3-pentafluorophenylcoumarin], the glutathione adducts detected [1] was “detectable glutathione adducts”.

In the case of `Cc1cc(C)n2c1C=C1C=CC(CCC(=O)NCCNC(=O)c3c(F)c(F)c(F)c(F)c3F)=[N+]1[B-]2(F)F` [Compound 30], the glutathione adducts detected [1] is reported as “detectable glutathione adducts”.

In the case of `CC(=O)Oc1ccc2c(c1)Oc1cc(OC(C)=O)ccc1C21OC(=O)c2cc(NC(=O)c3c(Cl)c(Cl)c(Cl)c(Cl)c3Cl)ccc21` [5-(pentachlorobenzoylamino)fluorescein diacetate], the “products by TLC” value [3] is reported as “Only a single, fast-moving fluorescent band corresponding to authentic 5-(pentachlorobenzoylamino)fluorescein”, the “fluorescent bands on gel (region of the tracking dye)” value [4] is reported as “a single band in the region of the tracking dye” and the “protein adduct bands on gel” value [4] is reported as “do not shown a protein adduct”.

`O=C1OC2(c3ccc(O)cc3Oc3cc(O)ccc32)c2ccc(NC(=O)c3c(F)c(F)c(F)c(F)c3C(=O)O)cc21` [Compound 27, 5-(2'-carboxy-3',4',5',6'-tetrafluorobenzoylamino)fluorescein] was tested, and the glutathione adducts detected [1] was “detectable glutathione adducts”.

With `O=C1OC2(c3ccc(O)cc3Oc3cc(O)ccc32)c2ccc(N3C(=O)c4c(F)c(F)c(F)c(F)c4C3=O)cc21` [Compound 28, 5-tetrafluorophthalimidylfluorescein] the glutathione adducts detected [1] was “detectable glutathione adducts”.
